Target: AMPK
Assay: AMPK activation, enzyme-linked immunosorbent assay
Type: biochemical
Conditions: compounds of Table 2 (Table 7)

Row | SMILES | EC50 [µM]
1 | N#Cc1ccc(NC(=O)N2CCC(NC(=O)c3ccc4[nH]c5c(c4c3)CN(Cc3ccc(C(F)(F)F)cc3)CC5)CC2)cc1 [2-27, N-(1-(4-cyanophenyl-carbamoyl)piperidin-4-yl)-2-(4-(trifluoromethyl)benzyl)-2,3,4,5-tetrahydro-1H-pyrido [4,3-b]indole-8-carboxamide] | 1 to 5
2 | O=C(NC1CCN(S(=O)(=O)c2ccc(F)cc2)CC1)c1ccc2[nH]c3c(c2c1)CN(Cc1ccc(C(F)(F)F)cc1)CC3 [2-28, N-(1-(4-fluorophenyl-sulfonyl)piperidin-4-yl)-2-(4-(trifluoro-methyl)benzyl)-2,3,4,5-tetrahydro-1H-pyrido [4,3-b]indole-8-carboxamide] | 1 to 5
3 | N#Cc1cccc(S(=O)(=O)N2CCC(NC(=O)c3ccc4[nH]c5c(c4c3)CN(Cc3ccc(C(F)(F)F)cc3)CC5)CC2)c1 [2-29, N-(1-(3-cyanophenyl-sulfonyl)piperidin-4-yl)-2-(4-(trifluoro-methyl)benzyl)-2,3,4,5-tetrahydro-1H-pyrido[4,3-b]indole-8-carboxamide] | 1 to 5
4 | O=C(NC1CCN(S(=O)(=O)c2cccc(C(F)(F)F)c2)CC1)c1ccc2[nH]c3c(c2c1)CN(Cc1ccc(C(F)(F)F)cc1)CC3 [2-30, 2-(4-(trifluoromethyl)benzyl)-N-(1-(3-(trifluoromethyl)phenylsulfonyl)piperidin-4-yl)-2,3,4,5-tetrahydro-1H-pyrido[4,3-b]indole-8-carboxamide] | 1 to 5
5 | O=C(NC1CCN(C(=O)Nc2ccc(C(F)(F)F)cc2)CC1)c1ccc2[nH]c3c(c2c1)CN(Cc1ccc(C(F)(F)F)cc1)CC3 [2-33, 2-(4-(trifluoromethyl)benzyl)-N-(1-(4-(trifluoromethyl)phenylcarbamoyl)piperidin-4-yl)-2,3,4,5-tetrahydro-1H-pyrido[4,3-b]indole-8-carboxamide] | 1 to 5
6 | O=C(NC1CCN(S(=O)(=O)c2ccc(F)cc2)CC1)c1ccc2[nH]c3c(c2c1)CN(c1ccc(F)cc1)CC3 [2-35, 2-(4-fluorophenyl)-N-(1-(4-fluorophenylsulfonyl)piperidin-4-yl)-2,3,4,5-tetrahydro-1H-pyrido[4,3-b]indole-8-carboxamide] | 10 to 50
7 | O=C(NC1CCN(Cc2cccnc2)CC1)c1ccc2[nH]c3c(c2c1)CN(c1ccc(F)cc1)CC3 [2-36, 2-(4-fluorophenyl)-N-(1-(pyridin-3-ylmethyl)piperidin-4-yl)-2,3,4,5-tetrahydro-1H-pyrido [4,3-b]indole-8-carboxamide] | > 100
8 | CC(C)(C)OC(=O)N1CCC(NC(=O)c2ccc3[nH]c4c(c3c2)CN(c2ccc(F)cc2)CC4)CC1 [2-38, tert-butyl 4-(2-(4-fluorophenyl)-2,3,4,5-tetrahydro-1H-pyrido [4,3-b]indole-8-carboxamido)piperidine-1-carboxylate] | 10 to 50
9 | O=C(NC1CCN(C(=O)c2ccc(F)cc2)CC1)c1ccc2[nH]c3c(c2c1)CN(c1ccc(F)cc1)CC3 [2-39, N-(1-(4-fluorobenzoyl)piperidin-4-yl)-2-(4-fluorophenyl)-2,3,4,5-tetrahydro-1H-pyrido[4,3-b]indole-8-carboxamide] | 10 to 50
10 | O=C(NC1CCN(C(=O)c2cccnc2)CC1)c1ccc2[nH]c3c(c2c1)CN(c1ccc(F)cc1)CC3 [2-40, 2-(4-fluorophenyl)-N-(1-nicotinoylpiperidin-4-yl)-2,3,4,5-tetrahydro-1H-pyrido [4,3-b]indole-8-carboxamide] | > 100
11 | O=C(NC1CCN(C(=O)c2ccc(C(F)(F)F)cc2)CC1)c1ccc2[nH]c3c(c2c1)CN(c1ccc(F)cc1)CC3 [2-41, 2-(4-fluorophenyl)-N-(1-(4-(trifluoromethyl)benzoyl)piperidin-4-yl)-2,3,4,5-tetrahydro-1H-pyrido[4,3-b]indole-8-carboxamide] | 10 to 50
12 | CC(C)(C)OC(=O)N1CCC(NC(=O)c2ccc3[nH]c4c(c3c2)CN(Cc2ccc(C(N)=O)cc2)CC4)CC1 [2-43, tert-butyl 4-(2-(4-carbamoylbenzyl)-2,3,4,5-tetrahydro-1H-pyrido[4,3-b]indole-8-carboxamido) piperidine-1-carboxylate] | > 100
13 | NC(=O)c1ccc(CN2CCc3[nH]c4ccc(C(=O)NC5CCN(C(=O)c6ccncc6)CC5)cc4c3C2)cc1 [2-46, 2-(4-carbamoylbenzyl)-N-(1-isonicotinoylpiperidin-4-yl)-2,3,4,5-tetrahydro-1H-pyrido [4,3-b]indole-8-carboxamide] | > 100

Now from value to molecule:

Row | EC50 [µM] | SMILES
14 | 1 to 5 | O=C(NC1CCN(S(=O)(=O)c2ccc(Cl)cc2)CC1)c1ccc2[nH]c3c(c2c1)CN(Cc1ccc(C(F)(F)F)cc1)CC3 [2-32, N-(1-(4-chlorophenyl-sulfonyl)piperidin-4-yl)-2-(4-(trifluoro-methyl)benzyl)-2,3,4,5-tetrahydro-1H-pyrido [4,3-b]indole-8-carboxamide]
15 | 5 to 10 | O=C(NC1CCN(Cc2ccc(C(F)(F)F)cc2)CC1)c1ccc2[nH]c3c(c2c1)CN(c1ccc(F)cc1)CC3 [2-37, 2-(4-fluorophenyl)-N-(1-(4-(trifluoromethyl)benzyl)piperidin-4-yl)-2,3,4,5-tetrahydro-1H-pyrido[4,3-b]indole-8-carboxamide]
16 | 10 to 50 | N#Cc1ccc(CN2CCC(NC(=O)c3ccc4[nH]c5c(c4c3)CN(Cc3ccc(C(N)=O)cc3)CC5)CC2)cc1 [2-44, 2-(4-carbamoylbenzyl)-N-(1-(4-cyanobenzyl)piperidin-4-yl)-2,3,4,5-tetrahydro-1H-pyrido [4,3-b]indole-8-carboxamide]
17 | > 100 | NC(=O)c1ccc(CN2CCc3[nH]c4ccc(C(=O)NC5CCN(Cc6ccncc6)CC5)cc4c3C2)cc1 [2-45, 2-(4-carbamoylbenzyl)-N-(1-(pyridin-4-ylmethyl)piperidin-4-yl)-2,3,4,5-tetrahydro-1H-pyrido [4,3-b]indole-8-carboxamide]
18 | 10 to 50 | NC(=O)c1ccc(CN2CCc3[nH]c4ccc(C(=O)NC5CCN(Cc6ccc(C(F)(F)F)cc6)CC5)cc4c3C2)cc1 [2-47, 2-(4-carbamoylbenzyl)-N-(1-(4-(trifluoromethyl)benzyl)piperidin-4-yl)-2,3,4,5-tetrahydro-1H-pyrido[4,3-b]indole-8-carboxamide]
19 | > 100 | NC(=O)c1ccc(CN2CCc3[nH]c4ccc(C(=O)NC5CCN(Cc6ccc(F)cc6)CC5)cc4c3C2)cc1 [2-48, 2-(4-carbamoylbenzyl)-N-(1-(4-fluorobenzyl)piperidin-4-yl)-2,3,4,5-tetrahydro-1H-pyrido [4,3-b]indole-8-carboxamide]
20 | > 100 | NC(=O)c1ccc(CN2CCC(NC(=O)c3ccc4[nH]c5c(c4c3)CN(Cc3ccc(C(N)=O)cc3)CC5)CC2)cc1 [2-49, 2-(4-carbamoylbenzyl)-N-(1-(4-carbamoylbenzyl)piperidin-4-yl)-2,3,4,5-tetrahydro-1H-pyrido [4,3-b]indole-8-carboxamide]
21 | < 0.5 | O=C(NC1CCN(Cc2ccncc2)CC1)c1ccc2[nH]c3c(c2c1)CN(Cc1ccc(C(F)(F)F)cc1)CC3 [2-50, N-(1-(pyridin-4-ylmethyl)piperidin-4-yl)-2-(4-(trifluoromethyl)benzyl)-2,3,4,5-tetrahydro-1H-pyrido[4,3-b]indole-8-carboxamide]
22 | 0.5 to 1 | O=C(NC1CCN(C(=O)c2ccncc2)CC1)c1ccc2[nH]c3c(c2c1)CN(Cc1ccc(C(F)(F)F)cc1)CC3 [2-51, N-(1-isonicotinoyl-piperidin-4-yl)-2-(4-(trifluoromethyl)benzyl)-2,3,4,5-tetrahydro-1H-pyrido [4,3-b]indole-8-carboxamide]

Reference: patent US9511058B2, “Methods for using carboxamide, sulfonamide and amine compounds” (Rigel Pharmaceuticals, Inc., priority 2010, dated 2016)
